From US20240391877A1, “COMPOUND AS INHIBITOR OF COMPLEMENT FACTOR D, AND PHARMACEUTICAL COMPOSITION AND USE THEREOF” (WUHAN CREATERNA SCIENCE AND TECHNOLOGY CO.,LTD., priority 2021, published 2024)

Key:
[1] = system: hemolysis of rabbit erythrocytes; experiment: Rabbit erythrocyte hemolysis assay to evaluate inhibitory activity on the bypass pathway; format: cell-based; conditions: Oryctolagus cuniculus, 0.5 h, 48% NHP or 26.4% NHS, 37° C. 30 min, absorbance 415 nm
Text: 2. Rabbit Erythrocyte Hemolysis Assay to Evaluate the Inhibitory Activity of Compounds on the Bypass Pathway
Normal Human Serum, NHS (collected from healthy people), Normal Human Plasma, NHP (Shanghai Yuduo), 96-well ELISA plate (Jet Biofil), Japanese big-eared white rabbit (Wuhan WQJX), Alsever's solution (Procell), centrifuge (Thermo, PICO17), thermostatic shaker (Shanghai Fuma), destaining shaker (Beijing Liuyi), cell counter (Invitrogen, Counter Countess II) (GVB^o, EGTA, MgCl2, NaOH, microplate reader, microplate thermostatic shaker, and pipette are equivalent to those in the experiment 1).
48% NHP: 100% NHP was diluted to 48% with buffer;
26.4% NPS: 100% NHS was diluted to 26.4% with buffer;
rabbit erythrocyte suspension: blood was taken from rabbit ear marginal vein, anticoagulated with Alsever's solution at a ratio of 1:1, stored in portions at 4° C., and could be stored for 4 weeks. Before use, the suspension was centrifuged at 500 g for 5 min to discard the Alsever's solution, washed three times with an equal volume of buffer and centrifuged at 500 g for 5 min, and finally the density was adjusted to 6×10^8 cells/mL with buffer.
In the 96-well ELISA plate, the experimental group was added with 50 μL of 48% NHP or 26.4% NHS and 50 μL of compound solution; the positive control group was added with 50 μL of 48% NHP or 26.4% NHS and 50 μL of buffer containing 0.2% DMSO; the blank control group was added with 50 μL of 48% inactivated NHP or 26.4% inactivated NHS and 0.2% DMSO buffer; the H2O group was added with 100 μL of double-distilled water; incubated at 37° C. for 15 min; 20 μL of rabbit erythrocyte suspension was added to each well and incubated on a shaker at 37° C. for 30 min; centrifuged at 2000 g (3380 rpm) for 5 min, and […] of supernatant was transferred to a new 96-well ELISA plate, and the absorbance was detected at 415 nm.
The PC group represents 100% hemolysis, and the NC group represents 0% hemolysis.
IC50: half-maximal inhibitory concentration. Data were collected to calculate the log value of hemolysis percentage versus compound concentration, and IC50 values were calculated using GraphPad Prism software.

[2] = target: T1, complement factor D (Homo sapiens, UniProt P00746); experiment: Complement factor D inhibitory activity (C3b method) in vitro screening; product Bb detected by ELISA; format: biochemical; conditions: factor D + factor B + factor C3b, 37° C., Bb by MicroVue Bb Plus ELISA
T1 construct: purchased Complement tech
T1 sequence (P00746 26-253): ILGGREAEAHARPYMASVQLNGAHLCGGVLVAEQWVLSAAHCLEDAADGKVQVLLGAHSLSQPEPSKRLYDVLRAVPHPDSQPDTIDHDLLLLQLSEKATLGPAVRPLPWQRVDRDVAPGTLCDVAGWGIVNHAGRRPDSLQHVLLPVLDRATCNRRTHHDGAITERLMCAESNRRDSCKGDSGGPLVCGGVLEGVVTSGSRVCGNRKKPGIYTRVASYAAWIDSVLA
Text: 1. Complement Factor D Inhibitory Activity (C3b Method) In Vitro Screening Experiment
V-bottom plate (AXYGEN), DMSO (Sigma), MicroVue Bb Plus ELISA kit (Quidel), complement factor C3b (abbreviated as factor C3b, Complement tech), complement factor B (abbreviated as factor B, Complement tech), complement factor D (abbreviated as factor D, Complement tech), EDTA (MACKLIN), GVB^o (Complement tech), EGTA (Aladdin), MgCl2 (Aladdin), NaOH (Sinopharm), microplate reader (Molecular Devices, SpectraMax i3x), microplate thermostatic shaker (Thermo, MB100-2A), pipette (Gilson)
0.1 M Mg-EGTA: 3.8 g of EGTA, 0.9521 g of MgCl2, and 0.7 g of NaOH were weighed, and the pH was adjusted to 7.5 with NaOH. Distilled water was added to make up to 100 mL, and the mixture was filtered with a […] sterile needle filter, stored in portions at 4° C.
Buffer: 0.1 M Mg-EGTA solution was diluted 10-fold to 10 mM with GVB^o buffer; • factor B working solution: 1 mg/mL factor B solution (10.75 μM) was diluted 6.7-fold to 1.6 μM with buffer; • factor C3b working solution: 1 mg/mL factor C3b solution (5.68 μM) was diluted 5-fold to […] with buffer; • factor D working solution: 0.1 mg/mL factor D solution (4.17 μM) was diluted 1303-fold to 3.2 nM with buffer.
Note: a. The above dilution multiples are for reference only and are adjusted according to the true concentration labeled on the reagent; • b. factor B: 93 KDa, factor D: 24 KDa, factor C3b: 176 KDa.
Stop solution: An appropriate amount of EDTA powder was weighed, dissolved in a certain amount of GVB^o buffer, and the pH was adjusted to 7.5 with NaOH. The mixture was stirred until clear and prepared into a 10 mM solution.
Compound stock solution: 40 mM compound solution was diluted with DMSO into 1 mM stock solution, and the 1 mM stock solution was diluted 3-fold with DMSO at 8 points to prepare compound stock solutions of various concentrations.
Compound working solution: diluted 250-fold with buffer to obtain compound solutions of various concentrations.
In the V-bottom plate, the experimental group was added with 10 μL of factor D solution and 10 μL of compound solution; the positive control group was added with 10 μL of factor D solution and buffer containing 0.4% DMSO; the blank control group was added with […] containing 0.2% DMSO; incubated at 37° C. for 15 min; the factor B working solution and the factor C3b working solution were mixed homogeneously at a ratio of 1:1; 20 µL of the mixture was added to each well and incubated at 37° C. for 30 min; the reaction was stopped by adding 40 μL of stop solution; the production of product Bb was detected by MicroVue Bb Plus ELISA kit.
1.4.1 The required wells of the ELISA plate were taken out and allowed to return to room temperature, and the remaining ones were repackaged and stored at 4° C.;
1.4.2 the wells were washed twice with 300 μL of 1× wash buffer, and incubated for 1 min at 25° C. for the first wash;
1.4.3 samples were diluted 8-fold with complement specimen diluent, and 100 μL of sample was added to each well and incubated at 25° C. for 30 min;
1.4.4 the liquid in the wells was discarded, and the wells were washed 5 times with 300 μL of 1× wash buffer, and incubated at room temperature for 1 min for the first wash;
1.4.5 50 μL of Bb Plus Conjugate was added to each well and incubated at 25° C. for 30 min;
1.4.6 the liquid in the wells was discarded, and the wells were washed 5 times with 300 μL of 1× wash buffer, and incubated at room temperature for 1 min for the first wash;
1.4.7 100 μL of […] (Substrate Solution) was added to each well and incubated at 25° C. for 15 min;
1.4.8 100 μL of stop solution was added to each well, and the absorbance was detected at 450 nm within 30 min.
1.5.1 Inhibition rate of each drug concentration:
The PC group represents 0% inhibition rate, and the NC group represents 100% inhibition rate. […]

[3] = In vivo pharmacokinetic study (PK assay on SD rats); conditions: Sprague-Dawley, rat, plasma; for AUC(0-t) / Cmax / half-life: 1 mg/kg
Method: 3. In Vivo Pharmacokinetic Study of the Compounds of the Present Disclosure
After adaptive domestication, SPF grade SD rats were administered 1 or 3 mg/kg the compounds of the present disclosure by single gavage and tail vein injection, respectively. Plasma was collected at specific time points after administration, and the concentration of compounds in plasma was detected by LC-MS/MS (AB SCIEX Qtrap4500). The PK parameters of each compound were calculated using software to reflect the pharmacokinetic properties of the compounds of the present disclosure in vivo in animals.

Row | Structure (SMILES) | IC50 [1] [nM] | also measured
1 | NCc1cccc(-c2cc(COc3ccccc3CC(=O)O)cc(N3CCC4(CCC4)CC3)c2)c1 [Compound 002, 2-(2-((3′-(aminomethyl)-5-(7-azaspiro[3.5]nonan-7-yl)-[1,1′-biphenyl]-3-yl)methoxy)phenyl)acetic acid] | 98 | –
2 | NCc1cccc(-c2cc(COc3ccccc3CC(=O)O)cc(N3CCC4(CCC4)C3)c2)c1 [Compound 003, 2-(2-((3′-(aminomethyl)-5-(6-azaspiro[3.4]octan-6-yl)-[1,1′-biphenyl]-3-yl)methoxy)phenyl)acetic acid] | 43 | IC50 [2]: 3 nM
3 | NCc1cccc(-c2cc(COc3ccccc3CC(=O)O)cc(N3CCCC4(CC4)C3)c2)c1 [Compound 004, 2-(2-((3′-(aminomethyl)-5-(5-azaspiro[2.5]octan-5-yl)-[1,1′-biphenyl]-3-yl)methoxy)phenyl)acetic acid] | 36 | IC50 [2]: 19 nM
4 | NCc1cccc(-c2cc(COc3ccccc3CC(=O)O)cc(N3CC4(CCCCC4)C3)c2)c1 [Compound 005, 2-(2-((3′-(aminomethyl)-5-(2-azaspiro[3.5]nonan-2-yl)-[1,1′-biphenyl]-3-yl)methoxy)phenyl)acetic acid] | 73 | –
5 | NCc1cccc(-c2cc(COc3cc(F)ccc3CC(=O)O)cc(N3CCC4(CC3)CC4)c2)c1 [Compound 009, 2-(2-((3′-(aminomethyl)-5-(6-azaspiro[2.5]octan-6-yl)-[1,1′-biphenyl]-3-yl)methoxy)-4-fluorophenyl)acetic acid] | 218 | –
6 | NCc1cccc(-c2cc(COc3ccc(F)cc3CC(=O)O)cc(N3CCC4(CC3)CC4)c2)c1 [Compound 010, 2-(2-((3′-(aminomethyl)-5-(6-azaspiro[2.5]octan-6-yl)-[1,1′-biphenyl]-3-yl)methoxy)-5-fluorophenyl)acetic acid] | 159 | AUC(0-t) ([3]; IV): 5660 ng·h/mL; Cmax ([3]; IV): 1840 ng/mL; half-life ([3]; IV): 3.31 h; bioavailability ([3]; PO 1 mg/kg vs IV 1 mg/kg, read-out: Oral bioavailability F): 30.9%; AUC(0-t) ([3]; PO (3% DMSO + 4% Tween)): 1750 ng·h/mL; Cmax ([3]; PO (3% DMSO + 4% Tween)): 349 ng/mL; half-life ([3]; PO (3% DMSO + 4% Tween)): 3.18 h
7 | NCc1cccc(-c2cc(COc3ccccc3CC(=O)O)cc(N3CCC4(COC4)C3)c2)c1 [Compound 015, 2-(2-((3′-(aminomethyl)-5-(2-oxa-6-azaspiro[3.4]octan-6-yl)-[1,1′-biphenyl]-3-yl)methoxy)phenyl)acetic acid] | 7 | –
8 | NCc1cccc(-c2cc(COc3ccccc3CC(=O)O)c(F)c(N3CCC4(CC3)COC4)c2)c1 [Compound 026, 2-(2-((3′-(aminomethyl)-4-fluoro-5-(2-oxa-7-azaspiro[3.5]nonan-7-yl)-[1,1′-biphenyl]-3-yl)methoxy)phenyl)acetic acid] | 16 | –
9 | NCc1cccc(-c2cc(COc3c(F)cccc3CC(=O)O)cc(N3CCC4(CC3)COC4)c2)c1 [Compound 028, 2-(2-((3′-(aminomethyl)-5-(2-oxa-7-azaspiro[3.5]nonan-7-yl)-[1,1′-biphenyl]-3-yl)methoxy)-3-fluorophenyl)acetic acid] | 58 | –
10 | CC(N)c1cccc(-c2cc(COc3ccccc3CC(=O)O)cc(N3CCOC4(CC4)C3)c2)c1 (centres unmarked) [Compound 035] | 183 | –
11 | CC(N)c1cccc(-c2cc(COc3ccccc3CC(=O)O)cc(N3CCC4(CCOC4)CC3)c2)c1 (centres unmarked) [Compound 036] | 44 | –
12 | CC(N)c1cccc(-c2cc(COc3ccccc3CC(=O)O)cc(N3CCC4(CCOCC4)CC3)c2)c1 (centres unmarked) [Compound 038] | 206 | –
13 | CC(N)c1cccc(-c2cc(COc3ccccc3CC(=O)O)cc(N3CCC4(CCCOC4)CC3)c2)c1 (centres unmarked) [Compound 039] | 127 | –
14 | CC(N)c1cccc(-c2cc(COc3ccccc3CC(=O)O)cc(N3CC4(CCOC4)C3)c2)c1 (centres unmarked) [Compound 040] | 138 | –
15 | CC(N)c1cccc(-c2cc(COc3ccccc3CC(=O)O)cc(N3CCC4(CCO4)C3)c2)c1 (centres unmarked) [Compound 041, 2-(2-((3′-(1-aminoethyl)-5-(1-oxa-6-azaspiro[3.4]octan-6-yl)-[1,1′-biphenyl]-3-yl)methoxy)phenyl)acetic acid] | 151 | –
16 | CC(N)c1cccc(-c2cc(COc3ccccc3CC(=O)O)cc(N3CCC4(CC3)COC4)c2)c1 (centres unmarked) [Compound 042] | 50 | –
17 | CC(N)c1cccc(-c2cc(COc3ccccc3CC(=O)O)cc(N3CCC4(CCO4)CC3)c2)c1 (centres unmarked) [Compound 043] | 93 | –
18 | NC(CF)c1cccc(-c2cc(COc3ccccc3CC(=O)O)cc(N3CCC4(CC3)COC4)c2)c1 (centres unmarked) [Compound 044, 2-(2-((3′-(1-amino-2-fluoroethyl)-5-(2-oxa-7-azaspiro[3.5]nonan-7-yl)-[1,1′-biphenyl]-3-yl)methoxy)phenyl)acetic acid] | 133 | –
19 | CC(N)c1cccc(-c2cc(COc3ccccc3CC(=O)O)cc(N3CCC4(CCOCC4)CC3)c2)c1F (centres unmarked) [Compound 055, 2-(2-((3′-(1-aminoethyl)-2′-fluoro-5-(3-oxa-9-azaspiro[5.5]undecan-9-yl)-[1,1′-biphenyl]-3-yl)methoxy)phenyl)acetic acid] | 117 | –
20 | CC(N)c1cccc(-c2cc(COc3ccccc3CC(=O)O)cc(N3CCC4(CCCOC4)CC3)c2)c1F (centres unmarked) [Compound 056, 2-(2-((3′-(1-aminoethyl)-2′-fluoro-5-(2-oxa-9-azaspiro[5.5]undecan-9-yl)-[1,1′-biphenyl]-3-yl)methoxy)phenyl)acetic acid] | 70 | –
